Data reported in article PMC9278656 (Journal of medicinal chemistry, 2021).

Tests used:
[1] = read-out: KZn; order of magnitude, stated in Conclusions
Caco-2 permeability = format: in vitro ADME; details: human
Ionophore activity = details: larger number indicates weaker ionophore activity

C/C(=N\NC(=S)N1CCC1)c1ccccn1 [ZMC1, (E)-N′-(1-(Pyridin-2-yl)ethylidene)azetidine-1-carbothiohydrazide, reference compound]
Kd [1]: 0.01 µM | Papp at 90 min, 5 μM (Caco-2 permeability): 156 ± 13 nm/s | Ionophore Ji drug/Ji DMSO (Ionophore activity): 12.4 -log[mol/m^2s]
